# In patent US9169255B2, “Caffeinated compounds and compositions for treatment of amyloid diseases and synucleinopathies” (ProteoTech Inc, priority 2011, dated 2015):
# Columns and labels:
# Format in all cases: biochemical
# [1] = biological target: T1, α-synuclein fibrils (Homo sapiens, UniProt P37840); experiment: Thioflavin T fluorometry, disruption of pre-formed α-synuclein fibrils; details: 2-day incubation
# T1 construct: purchased rPeptide, Bogart, Calif
# Protocol: In this set of studies, the efficacy of certain compounds provided herein to cause a disassembly/disruption/disaggregation of pre-formed fibrils of Parkinson's disease (i.e. consisting of α-synuclein fibrils) was analyzed. For the studies described below in Parts A and B, 69 μM of α-synuclein (rPeptide, Bogart, Calif.) was first incubated at 37° C. for 4 days in 20 mM sodium acetate buffer at pH 4 with circular shaking (1,300 rpm) to cause α-synuclein aggregation and fibril formation.
# In one study, Thioflavin T fluorometry was used to determine the effects of the compounds on α-synuclein fibrils. […] In this assay Thioflavin T binds specifically to fibrillar protein, and this binding produces a fluorescence enhancement at 485 nm that is directly proportional to the amount of fibrils formed.
# Following initial α-synuclein fibrilization as described above, the α-synuclein (6.9 μM) mixture was then incubated at 37° C. for 2 days with shaking (200 rpm), either alone, or in the presence of one of the compounds (at test compound:α-synuclein molar ratios of 10:1, 1:1, 0.1:1, and 0.01:1) in phosphate-buffered saline, pH 7.4+0.02% sodium azide. Following 2 days of co-incubation, 50 μl (5 μg) of each incubation mixture was transferred into a 96-well microtiter plate containing 150 μl of distilled water and 50 μl of a Thioflavin T solution (i.e. 500 μM Thioflavin T in 250 mM phosphate buffer, pH 6.8). The final concentration of Thioflavin T reagent is 100 μM in 50 mM phosphate buffer, pH 6.8. The fluorescence was read at 485 nm (444 nm excitation wavelength) using an ELISA plate fluorometer. Subtraction of the signal obtained from a diluted reaction (blank) containing buffer alone or compound alone at a concentration equivalent to that of its corresponding α-synuclein-containing reaction was used to quantitate the amount of Thioflavin T fluorescence in each α-synuclein-containing reaction that is proportional to the protein fibril content in that reaction.
# [2] = biological target: T2, Aβ 1-42 (Homo sapiens, UniProt P05067); experiment: Thioflavin T fluorometry, inhibition of β-sheet formation of non-fibrillar Aβ 1-42; design: pre-fibrillized human Aβ 1-42 (rPeptide); purchased rPeptide; details: for Thioflavin T fluorometry-% Inhibition: 24 hours
# T2 sequence (P05067 672-713 limits assumed): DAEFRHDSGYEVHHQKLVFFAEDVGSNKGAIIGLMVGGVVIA
# Protocol: To test whether the compounds can inhibit β-sheet formation of Aβ, the same assay as described in Example 5 was utilized, but the Aβ was prepared so that it is in a non-fibrillar state at the start of the assay. To achieve this non-fibrillar state, lyophilized human Aβ 1-42 (rPeptide) was dissolved to 1 mg/mL (220 μM) using 2 mM NaOH and the pH was adjusted to 10.5 with small (μL) additions of 1M NaOH. The clear solution was then frozen, re-lyophilized, and dissolved in a buffer containing 9.5 mM phosphate, 137 mM sodium chloride and 2.7 mM potassium chloride (phosphate-buffered saline; PBS) to a concentration of 2 mg/mL (440 μM) Aβ. […] The reactions containing Aβ+test compounds (or Aβ+PBS as a control for Aβ aggregation) were then incubated for 24 hours, the incubation mixtures were diluted 1:20 to 0.05 mg/mL Aβ and 50 μL of each diluted incubation mixture was transferred into a 96-well microtiter plate containing 150 μL of distilled water and 50 μL of a Thioflavin T solution (i.e. 500 μM Thioflavin T in 250 mM phosphate buffer, pH 6.8). The final concentration of Aβ was 2.2 μM and the concentration of Thioflavin T reagent was 100 μM in 50 mM phosphate buffer, pH 6.8. The fluorescence was read at 485 nm (444 nm excitation wavelength) using an ELISA plate fluorometer after subtraction with PBS buffer alone or compound alone, as blank.
# [3] = biological target: T2, Aβ 1-42; experiment: Circular dichroism (CD) spectroscopy, inhibition of β-sheet formation of Aβ; details: for magnitude of the change of the ellipticity minimum at 218 nm relative to Aβ alone: 24 hours of incubation, at appropriate concentrations; for Circular Dichroism Spectroscopy -% Inhibition: 24 hours
# Protocol: For this purpose, the Aβ reactions that were used in the Thioflavin T fluorometry assay (Part A in this Example) were assessed at 24 hours of aggregation. Aβ alone was also assessed by CD spectral analysis at t=0, prior to aggregation, (t=0, unfolded reference control). After 24 hours, reactions were diluted 20-fold in PBS and a CD spectrum for each reaction was acquired on a Jasco J-810 spectropolarimeter using a 0.1 cm path length cell. All spectra were recorded with a step size of 0.1 nm, a bandwidth of 1 nm, and an Aβ concentration of 0.05 mg/ml. The spectra were trimmed at the shortest wavelength that still provided a dynode voltage less than 600V. The trimmed spectra were then subjected to a data processing routine beginning with noise reduction by Fourier transform followed by subtraction of a blank spectrum (vehicle only without Aβ). These blank corrected spectra were then zeroed at 260 nm and the units converted from millidegrees to specific ellipticity.
# Percent β-sheet was determined from processed spectra using the ellipticity minimum value at approximately 218 nm and referencing to a scale normalized to nearly fully folded and unfolded reference values, consistent with previous reports (Ramirez-Alvarado et al., J. Mol. Biol., 273:898-912, 1997; Andersen et al., J. Am. Chem. Soc., 121:9879-9880, 1999). The fully folded reference value was found by performing the described calculation on the spectrum of Aβ fibrillized for 24 hours (complete fibrillization), and assigning this difference the arbitrary value of 100% β-sheet. The unfolded reference was provided by the spectrum from the same sample at the initial time point (t=0) and ascribing the difference found here the arbitrary value of 0% β-sheet. These percent β-sheet values were then used to provide the respective relative % inhibition of β-sheet induced by the compounds at given molar ratio of test compound:Aβ.
# [4] = compound:peptide molar ratio 0.01:1
# [5] = compound:peptide molar ratio 0.1:1
# [6] = compound:peptide molar ratio 1:1
# [7] = compound:peptide molar ratio 10:1
compound,measurement,setting,value
"1,3-dimethyl-7-(3′,4′-dibenzyloxy)benzyl-8-(3′,4′-dihydroxyphenyl)xanthine [PD-154]",Thioflavin T fluorometry-% Inhibition,[1]; [4],7%
same,Thioflavin T fluorometry-% Inhibition,[1]; [5],10%
same,Thioflavin T fluorometry-% Inhibition,[1]; [6],25%
same,Thioflavin T fluorometry-% Inhibition,[1]; [7],43%
same,Thioflavin T fluorometry-% Inhibition,[2]; compound:Aβ molar ratio 5:1,0%
same,Thioflavin T fluorometry-% Inhibition,[2]; compound:Aβ molar ratio 10:1,33%
"Cn1c(=O)c2c(ncn2C)n(C)c1=O [Caffeine, reference compound]",magnitude of the change of the ellipticity minimum at 218 nm relative to Aβ alone,[3],no effect
same,inhibition of Aβ aggregation (Thioflavin T fluorometry),"[2]; concentrations tested 50:1, 10:1 and 1:1",failed to inhibit
"Cn1cnc2c1c(=O)n(Cc1ccc(O)c(O)c1)c(=O)n2Cc1ccc(O)c(O)c1 [PD-150, 7-Methyl-1,3-bis(3′,4′-dihydroxy)benzylxanthine]",magnitude of the change of the ellipticity minimum at 218 nm relative to Aβ alone,[3],reduced
same,Circular Dichroism Spectroscopy -% Inhibition,[3]; compound:Aβ molar ratio 0.5:1,40%
same,Circular Dichroism Spectroscopy -% Inhibition,[3]; compound:Aβ molar ratio 1:1,42%
same,Circular Dichroism Spectroscopy -% Inhibition,[3]; compound:Aβ molar ratio 5:1,69%
same,Circular Dichroism Spectroscopy -% Inhibition,[3]; compound:Aβ molar ratio 10:1,62%
same,inhibition of β-sheet formation in Aβ (CD),[3]; test compound:Aβ molar ratios ≧5:1,at least 62%
same,Thioflavin T fluorometry-% Inhibition,[1]; [4],0%
same,Thioflavin T fluorometry-% Inhibition,[1]; [5],0%
same,Thioflavin T fluorometry-% Inhibition,[1]; [6],48%
same,Thioflavin T fluorometry-% Inhibition,[1]; [7],84%
same,Thioflavin T fluorometry-% Inhibition,[2]; compound:Aβ molar ratio 1:1,23%
same,Thioflavin T fluorometry-% Inhibition,[2]; compound:Aβ molar ratio 10:1,93%
"Cn1c(=O)n(Cc2ccc(O)c(O)c2)c(=O)c2c1ncn2Cc1ccc(O)c(O)c1 [PD-151, 3-Methyl-1,7-bis(3′,4′-dihydroxybenzyl)xanthine]",magnitude of the change of the ellipticity minimum at 218 nm relative to Aβ alone,[3],reduced
same,Circular Dichroism Spectroscopy -% Inhibition,[3]; compound:Aβ molar ratio 0.5:1,38%
same,Circular Dichroism Spectroscopy -% Inhibition,[3]; compound:Aβ molar ratio 1:1,43%
same,Circular Dichroism Spectroscopy -% Inhibition,[3]; compound:Aβ molar ratio 5:1,66%
same,Circular Dichroism Spectroscopy -% Inhibition,[3]; compound:Aβ molar ratio 10:1,67%
same,Thioflavin T fluorometry-% Inhibition,[1]; [4],4%
same,Thioflavin T fluorometry-% Inhibition,[1]; [5],15%
same,Thioflavin T fluorometry-% Inhibition,[1]; [6],56%
same,Thioflavin T fluorometry-% Inhibition,[1]; [7],89%
same,Thioflavin T fluorometry-% Inhibition,[2]; compound:Aβ molar ratio 1:1,9%
same,Thioflavin T fluorometry-% Inhibition,[2]; compound:Aβ molar ratio 10:1,87%
Cn1c(=O)c2c(ncn2Cc2ccc(O)c(O)c2)n(Cc2ccc(O)c(O)c2)c1=O [PD-152],magnitude of the change of the ellipticity minimum at 218 nm relative to Aβ alone,[3],reduced
same,Circular Dichroism Spectroscopy -% Inhibition,[3]; compound:Aβ molar ratio 0.5:1,26%
same,Circular Dichroism Spectroscopy -% Inhibition,[3]; compound:Aβ molar ratio 1:1,42%
same,Circular Dichroism Spectroscopy -% Inhibition,[3]; compound:Aβ molar ratio 5:1,35%
same,Circular Dichroism Spectroscopy -% Inhibition,[3]; compound:Aβ molar ratio 10:1,57%
same,Thioflavin T fluorometry-% Inhibition,[1]; [4],0%
same,Thioflavin T fluorometry-% Inhibition,[1]; [5],4%
same,Thioflavin T fluorometry-% Inhibition,[1]; [6],52%
same,Thioflavin T fluorometry-% Inhibition,[1]; [7],86%
same,Thioflavin T fluorometry-% Inhibition,[2]; compound:Aβ molar ratio 5:1,23%
same,Thioflavin T fluorometry-% Inhibition,[2]; compound:Aβ molar ratio 10:1,61%
"Cn1c(=O)c2c(nc(-c3ccc(O)c(O)c3)n2C)n(C)c1=O [PD-153, 1,3,7-trimethyl-8-(3′,4′-dihydroxyoxyphenyl)xanthine]",magnitude of the change of the ellipticity minimum at 218 nm relative to Aβ alone,[3],reduced
same,Circular Dichroism Spectroscopy -% Inhibition,[3]; compound:Aβ molar ratio 5:1,8%
same,Circular Dichroism Spectroscopy -% Inhibition,[3]; compound:Aβ molar ratio 10:1,24%
same,Thioflavin T fluorometry-% Inhibition,[1]; [4],7%
same,Thioflavin T fluorometry-% Inhibition,[1]; [5],17%
same,Thioflavin T fluorometry-% Inhibition,[1]; [6],18%
same,Thioflavin T fluorometry-% Inhibition,[1]; [7],37%
